Measured values reported in the CheMixHub viscosity set.

Experiment: xn = mol fraction of the nth substance listed

CCCCCCN + C1CCCCC1
303.15 K, 101 kPa
Details	viscosity [mPa·s]
x2 = 0.1064	0.7192
x2 = 0.2992	0.7005
x2 = 0.4953	0.7021
x2 = 0.5974	0.7073
x2 = 0.6964	0.7145
x2 = 0.7966	0.72
x2 = 0.898	0.7541

COC(=O)OC + C1CCCCC1
viscosity [mPa·s], 101.33 kPa
Details	x1 = 0.101	x1 = 0.1993	x1 = 0.3026	x1 = 0.3999	x1 = 0.5	x1 = 0.5996	x1 = 0.7039	x1 = 0.8005	x1 = 0.9028	x1 = 0.9031
298.15 K	0.686	0.616	–	0.535	0.52	0.507	0.499	0.502	0.515	–
303.15 K	0.636	0.573	0.533	0.5	0.485	0.475	0.47	0.472	0.491	–
308.15 K	0.59	0.535	0.498	0.463	0.455	0.445	0.442	0.444	–	0.457

COCCOCCOC + C1CCCCC1
viscosity [mPa·s], 101.33 kPa
Details	x1 = 0.0981	x1 = 0.1885	x1 = 0.2854	x1 = 0.3996	x1 = 0.5024	x1 = 0.6005	x1 = 0.7027	x1 = 0.8014	x1 = 0.898
298.15 K	0.794	0.765	0.76	0.769	0.785	0.808	0.843	0.882	0.924
303.15 K	0.734	0.706	0.702	0.714	0.73	0.751	0.779	0.813	0.851
308.15 K	0.677	0.654	0.653	0.65	0.679	0.697	0.725	0.756	0.792

Oc1ccccc1 + C1CCCCC1
viscosity [mPa·s], 303.15 K
Details	x2 = 0.0815	x2 = 0.2049	x2 = 0.2824	x2 = 0.4033	x2 = 0.501	x2 = 0.5012	x2 = 0.5905	x2 = 0.7019	x2 = 0.7969	x2 = 0.8953
101 kPa	5.517	3.87	3.177	2.326	1.864	–	1.552	1.255	1.066	0.898
101.33 kPa	5.517	3.87	3.177	2.326	–	1.864	1.552	1.255	1.066	0.898

ClC(Cl)C(Cl)Cl + C1CCOC1
303.15 K, 101 kPa
Details	viscosity [mPa·s]
x2 = 0.0912	1.403
x2 = 0.1846	1.347
x2 = 0.2753	1.283
x2 = 0.4617	1.108
x2 = 0.5426	1.015
x2 = 0.6763	0.8466
x2 = 0.7791	0.7155
x2 = 0.8994	0.5718
x2 = 0.9513	0.515

ClC(Cl)C(Cl)Cl + C1COCCO1
303.15 K, 101.33 kPa
Details	viscosity [mPa·s]
x2 = 0.0869	1.441
x2 = 0.1835	1.419
x2 = 0.2833	1.392
x2 = 0.3491	1.372
x2 = 0.461	1.331
x2 = 0.5705	1.287
x2 = 0.6587	1.245
x2 = 0.7613	1.198
x2 = 0.8189	1.169
x2 = 0.908	1.128

Oc1ccccc1 + C1COCCO1
308.15 K, 101 kPa
Details	viscosity [mPa·s]
x2 = 0.1	4.829
x2 = 0.2	4.471
x2 = 0.3	3.888
x2 = 0.4	3.179
x2 = 0.5	2.568
x2 = 0.6	2.062
x2 = 0.7	1.664
x2 = 0.8	1.371
x2 = 0.9	1.141

ClC(Cl)C(Cl)Cl + C=C(C)C(=O)OC
303.15 K, 101 kPa
Details	viscosity [mPa·s]
x2 = 0.0942	1.422
x2 = 0.1967	1.317
x2 = 0.2785	1.235
x2 = 0.4978	0.9971
x2 = 0.598	0.8879
x2 = 0.7131	0.7662
x2 = 0.905	0.5902

COCCOCCOC + CC1COC(=O)O1
viscosity [mPa·s], 101.33 kPa
Details	298.15 K	308.15 K	318.15 K
x1 = 0.021	2.427	2	1.666
x1 = 0.0421	2.372	1.94	1.641
x1 = 0.0759	2.295	1.87	1.565
x1 = 0.0976	2.245	1.835	1.529
x1 = 0.1779	2.081	1.693	1.42
x1 = 0.2468	1.953	1.595	1.332
x1 = 0.3441	1.782	1.458	1.216
x1 = 0.3815	1.719	1.412	1.176
x1 = 0.4148	1.669	1.362	1.145
x1 = 0.4853	1.573	1.291	1.083
x1 = 0.5455	1.488	1.226	1.038
x1 = 0.6708	1.324	1.101	0.938
x1 = 0.7643	1.223	1.017	0.877
x1 = 0.8341	1.148	0.959	0.829
x1 = 0.8725	1.107	0.928	0.804
x1 = 0.9275	1.06	0.889	0.774
x1 = 0.9513	1.035	0.874	0.758
x1 = 0.9796	1.005	0.852	0.739

CCCC[N+](CCCC)(CCCC)CCCC.F[B-](F)(F)F + CC#N
viscosity [mPa·s], 100 kPa
Details	x1 = 0.004121	x1 = 0.008132	x1 = 0.01219	x1 = 0.01614	x1 = 0.02013	x1 = 0.0241	x1 = 0.02789	x1 = 0.03177	x1 = 0.03562	x1 = 0.0394
293.15 K	0.423	0.446	0.472	0.499	0.528	0.559	0.591	0.625	0.661	0.698
298.15 K	0.404	0.426	0.45	0.475	0.502	0.532	0.561	0.594	0.628	0.663
303.15 K	0.385	0.406	0.429	0.453	0.48	0.507	0.536	0.567	0.599	0.633
308.15 K	0.369	0.389	0.411	0.433	0.458	0.484	0.511	0.54	0.57	0.602
313.15 K	0.354	0.373	0.393	0.414	0.437	0.462	0.487	0.514	0.543	0.572
318.15 K	0.34	0.358	0.377	0.397	0.418	0.441	0.464	0.489	0.516	0.544
323.15 K	0.327	0.344	0.362	0.38	0.4	0.422	0.443	0.467	0.491	0.517

ClC(Cl)C(Cl)Cl + CC#N
303.15 K, 101.32 kPa
Details	viscosity [mPa·s]
x2 = 0.1125	1.381
x2 = 0.2007	1.315
x2 = 0.2582	1.266
x2 = 0.3568	1.17
x2 = 0.4174	1.103
x2 = 0.4937	1.012
x2 = 0.5964	0.8767
x2 = 0.6989	0.7317
x2 = 0.8504	0.5162
x2 = 0.9233	0.4184

N#CCCO + CC#N
298 K, 101 kPa
Details	viscosity [mPa·s]
x1 = 0.1342	0.466
x1 = 0.2793	0.689
x1 = 0.4366	0.906
x1 = 0.6079	1.358
x1 = 0.7949	2.144

Oc1ccccc1 + CC(=O)c1ccccc1
303.15 K, 101 kPa
Details	viscosity [mPa·s]
x2 = 0.0901	4.976
x2 = 0.2182	4.319
x2 = 0.3102	3.905
x2 = 0.4048	3.519
x2 = 0.5083	3.131
x2 = 0.5936	2.839
x2 = 0.7241	2.404
x2 = 0.7583	2.295
x2 = 0.8846	1.887

COCCOCCOC + CC(C)(C)O
viscosity [mPa·s], 101 kPa
Details	x1 = 0.1032	x1 = 0.2054	x1 = 0.3014	x1 = 0.4031	x1 = 0.5025	x1 = 0.6046	x1 = 0.7072	x1 = 0.8058	x1 = 0.8973
298.15 K	2.377	1.768	1.453	1.259	1.146	1.073	1.032	1.008	0.995
303.15 K	1.954	1.523	1.274	1.123	1.033	0.974	0.943	0.921	0.915
308.15 K	1.625	1.319	1.13	1.009	0.937	0.888	0.864	0.852	0.844

CC=CC(=O)O + CC(C)=O
viscosity [mPa·s], 101 kPa
Details	x1 = 0.0488	x1 = 0.1	x1 = 0.1504	x1 = 0.1994	x1 = 0.2534	x1 = 0.2705
298.15 K	0.3461	0.3887	0.4349	0.4858	0.5435	0.5686
303.15 K	0.3299	0.3718	0.4141	0.461	0.5149	0.5368
308.15 K	0.3157	0.3531	0.3935	0.4352	0.4883	0.5066
313.15 K	0.3017	0.3379	0.3756	0.4196	0.463	0.4869
323.15 K	0.2771	0.3079	0.342	0.3849	0.4184	0.438

ClC(Cl)C(Cl)Cl + CC(C)=O
298.15 K, 101 kPa
Details	viscosity [mPa·s]
x1 = 0.2	0.509
x1 = 0.4	0.811
x1 = 0.6	1.138
x1 = 0.8	1.499

OC(C(F)(F)F)C(F)(F)F + CC(C)=O
298.15 K, 101 kPa
Details	viscosity [mPa·s]
x2 = 0.2	1.35
x2 = 0.4	0.964
x2 = 0.5	0.838
x2 = 0.6	0.658
x2 = 0.8	0.45
x2 = 0.9	0.369
x2 = 0.95	0.336

Oc1ccccc1 + CC(C)=O
viscosity [mPa·s], 101 kPa
Details	293.2 K	302.95 K	313.25 K	322.95 K
x1 = 0.0613	–	0.36	0.328	0.299
x1 = 0.0926	0.429	–	–	–
x1 = 0.1303	–	0.441	0.399	0.36
x1 = 0.1837	0.56	–	–	–
x1 = 0.1912	–	0.521	0.47	0.422
x1 = 0.2695	–	0.67	0.59	0.53
x1 = 0.2749	0.755	–	–	–
x1 = 0.3325	–	0.808	0.711	0.628
x1 = 0.3763	1.055	–	–	–
x1 = 0.4181	–	1.058	0.904	0.794
x1 = 0.458	1.379	–	–	–
x1 = 0.4832	–	1.319	1.101	0.95
x1 = 0.5364	1.853	–	–	–
x1 = 0.5583	–	1.658	1.363	1.15
x1 = 0.6341	2.75	–	–	–
x1 = 0.6402	–	2.18	1.741	1.425
x1 = 0.6982	3.59	–	–	–
x1 = 0.7215	–	2.91	2.23	1.785
x1 = 0.7829	4.97	–	–	–
x1 = 0.8187	–	3.915	2.875	2.245
x1 = 0.8885	–	4.905	3.465	2.615
x1 = 0.8891	7.3	–	–	–

COCCOCCOC + CC(C)CC(C)(C)C
viscosity [mPa·s], 101.33 kPa
Details	x1 = 0.0931	x1 = 0.1978	x1 = 0.2916	x1 = 0.4016	x1 = 0.4538	x1 = 0.5881	x1 = 0.687	x1 = 0.7926	x1 = 0.8997
298.15 K	0.49	0.511	0.538	0.58	0.602	0.668	0.726	0.808	0.887
303.15 K	0.46	0.481	0.507	0.545	0.564	0.624	0.677	0.741	0.821
308.15 K	0.435	0.455	0.478	0.512	0.529	0.584	0.632	0.69	0.762
313.15 K	0.413	0.43	0.451	0.482	0.5	0.548	0.592	0.647	0.712
318.15 K	0.389	0.405	0.425	0.453	0.468	0.512	0.553	0.601	–

CCCCCCn1cc[n+](C)c1.F[B-](F)(F)F + CC(C)CO
101 kPa
Details	viscosity [mPa·s]
293.15 K, x1 = 0.5606	49.75
303.15 K, x1 = 0.8327	84.55
308.15 K, x1 = 0.1004	4.975

COCCOCCOC + CC(C)CO
viscosity [mPa·s], 101 kPa
Details	x1 = 0.104	x1 = 0.2048	x1 = 0.3058	x1 = 0.4023	x1 = 0.5027	x1 = 0.605	x1 = 0.7019	x1 = 0.8023	x1 = 0.9024
298.15 K	2.146	1.635	1.377	1.231	1.136	1.076	1.038	1.011	0.995
308.15 K	1.649	1.302	1.121	1.013	0.947	0.904	0.876	0.856	0.846
318.15 K	1.284	1.047	0.938	0.845	0.796	0.78	0.747	0.733	0.726
